Source: ChEMBL document CHEMBL4024706 (Eur J Med Chem, 2017)

Columns and labels:
[1] = molecular target: Dual specificity testis-specific protein kinase 1 (Homo sapiens) (UniProt Q15569); experiment: Inhibition of wild-type human […] length TESK1 (R37 to S626 residues) expressed in bacterial expression system assessed as residual activity at 1 uM by Kinomescan method relative to control
Pfeiffer = experiment: Cell cycle arrest in human Pfeiffer cells assessed as increase in accumulation at G0/G1 phase after 48 hrs by propidium iodide/RNase staining based flow cytometric method; type: functional
[2] = molecular target: Serine/threonine-protein kinase D2 (Homo sapiens) (UniProt Q9BZL6); experiment: Inhibition of wild-type human partial length PRKD2 (A519 to E838 residues) expressed in bacterial expression system assessed as residual activity at 1 uM by Kinomescan method relative to control
[3] = molecular target: Insulin receptor-related protein (Homo sapiens) (UniProt P14616); experiment: Inhibition of wild-type human partial length INSRR (R950 to E1278 residues) expressed in bacterial expression system assessed as residual activity at 1 uM by Kinomescan method relative to control
[4] = molecular target: Phosphatidylinositol 4,5-bisphosphate 3-kinase catalytic subunit alpha isoform (Homo sapiens) (UniProt P42336); experiment: Inhibition of wild-type human partial length PIK3CA (R108 to N1068 residues) expressed in mammalian expression system assessed as residual activity at 1 uM by Kinomescan method relative to control
[5] = molecular target: Mitogen-activated protein kinase 12 (Homo sapiens) (UniProt P53778); experiment: Inhibition of wild-type human full length p38-gamma (M1 to L367 residues) expressed in mammalian expression system assessed as residual activity at 1 uM by Kinomescan method relative to control
[6] = molecular target: Dual specificity protein kinase CLK4 (Homo sapiens) (UniProt Q9HAZ1); experiment: Inhibition of wild-type human partial length CLK4 (R135 to K481 residues) expressed in bacterial expression system assessed as residual activity at 1 uM by Kinomescan method relative to control
[7] = molecular target: Mitogen-activated protein kinase kinase kinase kinase 3 (Homo sapiens) (UniProt Q8IVH8); experiment: Inhibition of wild-type human partial length MAP4K3 (M1 to D301 residues) expressed in bacterial expression system assessed as residual activity at 1 uM by Kinomescan method relative to control
[8] = test system: Epidermal growth factor receptor (Homo sapiens), P00533 [UNDEFINED MUTATION]; experiment: Inhibition of human partial length EGFR L747-S752del/P753S mutant expressed in bacterial expression system assessed as residual activity at 1 uM by Kinomescan method relative to control
[9] = molecular target: Ephrin type-A receptor 1 (Homo sapiens) (UniProt P21709); experiment: Inhibition of wild-type human partial length EPHA1 (V588 to I913 residues) expressed in bacterial expression system assessed as residual activity at 1 uM by Kinomescan method relative to control
[10] = molecular target: Tyrosine-protein kinase ITK/TSK (Homo sapiens) (UniProt Q08881); experiment: Inhibition of wild-type human partial length ITK (R335 to L620 residues) expressed in bacterial expression system assessed as residual activity at 1 uM by Kinomescan method relative to control
Chain of Tyrosine-protein kinase ITK/TSK (Homo sapiens) (Q08881 whole entry, the tested form may be a part): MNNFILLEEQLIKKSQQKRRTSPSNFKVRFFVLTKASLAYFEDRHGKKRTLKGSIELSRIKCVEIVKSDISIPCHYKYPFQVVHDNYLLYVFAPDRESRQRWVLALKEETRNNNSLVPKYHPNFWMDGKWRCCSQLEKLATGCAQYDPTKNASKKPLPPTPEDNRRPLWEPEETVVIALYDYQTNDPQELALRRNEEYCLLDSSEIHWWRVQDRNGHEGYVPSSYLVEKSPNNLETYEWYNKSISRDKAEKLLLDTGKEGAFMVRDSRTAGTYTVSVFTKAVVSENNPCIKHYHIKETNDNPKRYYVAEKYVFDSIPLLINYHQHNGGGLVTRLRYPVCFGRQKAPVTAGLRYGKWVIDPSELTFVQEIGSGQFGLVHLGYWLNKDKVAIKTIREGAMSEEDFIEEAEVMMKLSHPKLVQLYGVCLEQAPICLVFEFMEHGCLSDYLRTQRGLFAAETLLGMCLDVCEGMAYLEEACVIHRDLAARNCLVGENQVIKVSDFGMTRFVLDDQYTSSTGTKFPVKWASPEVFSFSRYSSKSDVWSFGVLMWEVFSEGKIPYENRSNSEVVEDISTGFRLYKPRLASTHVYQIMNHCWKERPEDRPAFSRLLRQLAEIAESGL

[11] = molecular target: Cyclin-dependent kinase 11B (Homo sapiens) (UniProt P21127); experiment: Inhibition of wild-type human partial length CDC2L1 (P353 to G692 residues) expressed in bacterial expression system assessed as residual activity at 1 uM by Kinomescan method relative to control
[12] = molecular target: Ephrin type-A receptor 8 (Homo sapiens) (UniProt P29322); experiment: Inhibition of wild-type human partial length EPHA8 (Q608 to C920 residues) expressed in bacterial expression system assessed as residual activity at 1 uM by Kinomescan method relative to control
[13] = molecular target: Ribosomal protein S6 kinase beta-1 (Homo sapiens) (UniProt P23443); experiment: Inhibition of wild-type human partial length S6K1 (M1 to S421 residues) expressed in mammalian expression system assessed as residual activity at 1 uM by Kinomescan method relative to control
Chain of Ribosomal protein S6 kinase beta-1 (Homo sapiens) (P23443 whole entry, looked up, the tested form may be a part): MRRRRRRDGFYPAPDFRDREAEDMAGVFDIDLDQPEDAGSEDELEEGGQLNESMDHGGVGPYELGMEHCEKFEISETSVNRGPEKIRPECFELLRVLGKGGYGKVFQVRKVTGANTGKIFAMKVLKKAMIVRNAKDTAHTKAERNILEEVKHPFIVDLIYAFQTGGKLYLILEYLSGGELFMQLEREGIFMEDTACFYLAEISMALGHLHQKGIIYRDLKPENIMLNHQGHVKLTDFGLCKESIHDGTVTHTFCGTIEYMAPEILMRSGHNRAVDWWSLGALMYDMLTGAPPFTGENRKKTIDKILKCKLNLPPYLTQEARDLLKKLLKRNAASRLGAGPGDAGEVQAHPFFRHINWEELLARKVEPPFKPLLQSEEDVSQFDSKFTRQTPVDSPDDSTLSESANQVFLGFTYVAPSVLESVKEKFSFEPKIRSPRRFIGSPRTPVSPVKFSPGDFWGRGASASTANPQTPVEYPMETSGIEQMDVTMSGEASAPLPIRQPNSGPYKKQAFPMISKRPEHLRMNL

[14] = molecular target: Ribosomal protein S6 kinase alpha-3 (Homo sapiens) (UniProt P51812); experiment: Inhibition of wild-type human partial length C-terminal RSK2 kinase domain 2 (V402 to S715 residues) expressed in mammalian expression system assessed as residual activity at 1 uM by Kinomescan method relative to control
Chain of Ribosomal protein S6 kinase alpha-3 (Homo sapiens) (P51812 whole entry, the tested form may be a part): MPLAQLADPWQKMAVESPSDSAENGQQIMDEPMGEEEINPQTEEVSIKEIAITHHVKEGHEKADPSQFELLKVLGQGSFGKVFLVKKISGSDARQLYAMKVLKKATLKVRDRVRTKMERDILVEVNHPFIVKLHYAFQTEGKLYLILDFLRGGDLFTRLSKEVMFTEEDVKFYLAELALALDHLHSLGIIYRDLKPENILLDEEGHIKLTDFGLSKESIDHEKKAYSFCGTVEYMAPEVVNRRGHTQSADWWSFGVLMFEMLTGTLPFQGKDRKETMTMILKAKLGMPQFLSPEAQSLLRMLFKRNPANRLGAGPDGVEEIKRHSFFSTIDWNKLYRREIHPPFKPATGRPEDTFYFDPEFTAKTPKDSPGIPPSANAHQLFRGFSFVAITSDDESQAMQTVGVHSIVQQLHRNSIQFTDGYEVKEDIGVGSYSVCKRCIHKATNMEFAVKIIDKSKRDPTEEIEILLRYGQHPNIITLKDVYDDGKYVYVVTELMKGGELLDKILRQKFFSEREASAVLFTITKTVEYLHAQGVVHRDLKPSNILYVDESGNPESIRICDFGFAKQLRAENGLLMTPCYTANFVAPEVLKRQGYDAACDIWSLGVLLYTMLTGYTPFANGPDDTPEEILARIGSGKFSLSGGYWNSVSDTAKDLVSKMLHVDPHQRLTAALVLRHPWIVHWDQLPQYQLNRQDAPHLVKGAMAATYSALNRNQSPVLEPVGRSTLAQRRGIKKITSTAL

[15] = molecular target: Serine/threonine-protein kinase Nek5 (Homo sapiens) (UniProt Q6P3R8); experiment: Inhibition of wild-type human partial length NEK5 (M1 to M279 residues) expressed in bacterial expression system assessed as residual activity at 1 uM by Kinomescan method relative to control
Chain of Serine/threonine-protein kinase Nek5 (Homo sapiens) (Q6P3R8 whole entry, the tested form may be a part): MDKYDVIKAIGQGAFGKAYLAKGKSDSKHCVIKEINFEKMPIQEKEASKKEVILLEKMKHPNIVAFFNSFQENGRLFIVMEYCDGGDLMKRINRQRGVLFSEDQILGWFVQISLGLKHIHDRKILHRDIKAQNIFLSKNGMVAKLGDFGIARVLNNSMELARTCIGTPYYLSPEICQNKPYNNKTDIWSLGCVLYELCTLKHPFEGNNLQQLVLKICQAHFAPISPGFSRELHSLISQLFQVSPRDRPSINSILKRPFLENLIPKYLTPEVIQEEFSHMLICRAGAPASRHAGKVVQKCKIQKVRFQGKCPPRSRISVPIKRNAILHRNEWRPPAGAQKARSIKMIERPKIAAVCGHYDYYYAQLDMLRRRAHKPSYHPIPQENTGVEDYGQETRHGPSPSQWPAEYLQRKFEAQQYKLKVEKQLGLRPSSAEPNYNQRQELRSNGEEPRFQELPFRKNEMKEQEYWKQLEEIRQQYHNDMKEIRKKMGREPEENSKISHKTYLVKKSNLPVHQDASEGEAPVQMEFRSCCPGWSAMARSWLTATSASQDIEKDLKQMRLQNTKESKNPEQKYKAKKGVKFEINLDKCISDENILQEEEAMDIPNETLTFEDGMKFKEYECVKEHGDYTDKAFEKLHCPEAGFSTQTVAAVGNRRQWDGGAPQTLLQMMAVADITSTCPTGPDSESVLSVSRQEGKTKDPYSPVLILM

[16] = molecular target: Interleukin-1 receptor-associated kinase 1 (Homo sapiens) (UniProt P51617); experiment: Inhibition of wild-type human partial length IRAK1 (R194 to S712 residues) expressed in mammalian expression system assessed as residual activity at 1 uM by Kinomescan method relative to control
[17] = molecular target: Mitogen-activated protein kinase 7 (Homo sapiens) (UniProt Q13164); experiment: Inhibition of wild-type human partial length ERK5 (M1 to A409 residues) expressed in bacterial expression system assessed as residual activity at 1 uM by Kinomescan method relative to control
Homo sapiens = organism: Homo sapiens; experiment: Inhibition of human partial length FLT3 ITD mutant expressed in bacterial expression system assessed as residual activity at 1 uM by Kinomescan method relative to control
[18] = molecular target: Phosphatidylinositol 5-phosphate 4-kinase type-2 beta (Homo sapiens) (UniProt P78356); experiment: Inhibition of wild-type human full length PIP5K2B (M1 to T416 residues) expressed in bacterial expression system assessed as residual activity at 1 uM by Kinomescan method relative to control
Chain of Phosphatidylinositol 5-phosphate 4-kinase type-2 beta (Homo sapiens) (P78356 whole entry, the tested form may be a part): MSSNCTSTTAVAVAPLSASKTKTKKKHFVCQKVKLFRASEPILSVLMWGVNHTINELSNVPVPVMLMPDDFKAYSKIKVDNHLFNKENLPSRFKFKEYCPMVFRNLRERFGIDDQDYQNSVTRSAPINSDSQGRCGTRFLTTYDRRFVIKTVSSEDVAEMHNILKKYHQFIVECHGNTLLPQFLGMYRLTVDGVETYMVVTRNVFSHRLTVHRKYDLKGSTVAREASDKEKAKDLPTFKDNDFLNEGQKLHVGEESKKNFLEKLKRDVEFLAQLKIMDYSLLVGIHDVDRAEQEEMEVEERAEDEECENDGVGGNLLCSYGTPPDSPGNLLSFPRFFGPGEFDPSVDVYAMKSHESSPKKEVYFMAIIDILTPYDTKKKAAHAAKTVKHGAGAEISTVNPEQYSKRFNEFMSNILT

[19] = molecular target: Serine/threonine-protein kinase pim-3 (Homo sapiens) (UniProt Q86V86); experiment: Inhibition of wild-type human partial length PIM3 (G16 to A317 residues) expressed in bacterial expression system assessed as residual activity at 1 uM by Kinomescan method relative to control
[20] = test system: Tyrosine-protein kinase ABL1 (Homo sapiens), P00519 [F317L]; experiment: Inhibition of human phosphorylated ABL1 F317L mutant (S229 to K512 residues) expressed in mammalian expression system assessed as residual activity at 1 uM by Kinomescan method relative to control
[21] = molecular target: Mitogen-activated protein kinase kinase kinase 4 (Homo sapiens) (UniProt Q9Y6R4); experiment: Inhibition of wild-type human partial length MAP3K4 (G1319 to E1608 residues) expressed in bacterial expression system assessed as residual activity at 1 uM by Kinomescan method relative to control
Chain of Mitogen-activated protein kinase kinase kinase 4 (Homo sapiens) (Q9Y6R4 whole entry, the tested form may be a part): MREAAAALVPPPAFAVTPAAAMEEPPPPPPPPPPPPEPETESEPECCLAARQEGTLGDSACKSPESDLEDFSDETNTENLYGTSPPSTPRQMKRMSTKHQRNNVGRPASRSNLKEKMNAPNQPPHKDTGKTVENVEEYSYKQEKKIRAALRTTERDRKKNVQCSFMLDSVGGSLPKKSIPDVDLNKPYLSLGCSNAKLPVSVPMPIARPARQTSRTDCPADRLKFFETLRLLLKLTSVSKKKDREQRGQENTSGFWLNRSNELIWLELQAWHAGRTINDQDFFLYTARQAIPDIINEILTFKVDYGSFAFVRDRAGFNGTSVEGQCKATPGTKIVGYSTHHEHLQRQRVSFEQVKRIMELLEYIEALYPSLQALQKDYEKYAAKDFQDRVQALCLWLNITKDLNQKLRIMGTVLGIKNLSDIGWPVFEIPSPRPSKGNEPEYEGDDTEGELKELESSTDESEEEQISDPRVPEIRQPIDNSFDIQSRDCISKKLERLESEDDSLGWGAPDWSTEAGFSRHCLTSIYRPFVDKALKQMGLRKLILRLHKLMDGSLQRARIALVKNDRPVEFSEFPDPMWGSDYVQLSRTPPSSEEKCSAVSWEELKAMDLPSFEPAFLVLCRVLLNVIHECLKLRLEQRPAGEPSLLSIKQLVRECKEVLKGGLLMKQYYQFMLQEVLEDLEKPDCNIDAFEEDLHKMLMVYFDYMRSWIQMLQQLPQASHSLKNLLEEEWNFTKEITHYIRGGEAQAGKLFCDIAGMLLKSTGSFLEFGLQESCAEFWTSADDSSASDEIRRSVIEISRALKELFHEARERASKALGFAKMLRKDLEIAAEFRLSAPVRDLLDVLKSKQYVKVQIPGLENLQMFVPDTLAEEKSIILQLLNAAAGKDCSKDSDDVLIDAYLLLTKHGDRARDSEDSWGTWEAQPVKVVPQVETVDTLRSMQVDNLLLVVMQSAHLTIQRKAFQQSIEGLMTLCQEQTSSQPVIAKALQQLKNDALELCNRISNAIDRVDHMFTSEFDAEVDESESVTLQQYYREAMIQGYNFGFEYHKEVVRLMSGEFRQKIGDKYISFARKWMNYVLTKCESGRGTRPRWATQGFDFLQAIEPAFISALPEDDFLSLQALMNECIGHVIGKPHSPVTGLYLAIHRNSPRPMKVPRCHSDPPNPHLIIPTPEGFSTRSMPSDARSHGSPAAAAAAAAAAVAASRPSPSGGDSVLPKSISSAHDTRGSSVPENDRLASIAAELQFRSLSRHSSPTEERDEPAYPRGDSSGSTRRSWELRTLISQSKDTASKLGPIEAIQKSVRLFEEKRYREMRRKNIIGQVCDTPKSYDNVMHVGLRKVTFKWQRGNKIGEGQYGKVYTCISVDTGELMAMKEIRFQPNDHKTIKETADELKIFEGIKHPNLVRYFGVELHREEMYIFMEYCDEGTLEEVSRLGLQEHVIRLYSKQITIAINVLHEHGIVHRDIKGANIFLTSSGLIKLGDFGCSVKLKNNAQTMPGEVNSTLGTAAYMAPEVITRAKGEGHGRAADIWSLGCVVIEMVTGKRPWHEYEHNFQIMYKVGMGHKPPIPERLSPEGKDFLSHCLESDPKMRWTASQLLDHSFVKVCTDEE

[22] = molecular target: Serine/threonine-protein kinase PAK 2 (Homo sapiens) (UniProt Q13177); experiment: Inhibition of wild-type human partial length PAK2 (P151 to R525 residues) expressed in bacterial expression system assessed as residual activity at 1 uM by Kinomescan method relative to control
[23] = molecular target: Non-receptor tyrosine-protein kinase TNK1 (Homo sapiens) (UniProt Q13470); experiment: Inhibition of wild-type human full length TNK1 (M1 to P661 residues) expressed in bacterial expression system assessed as residual activity at 1 uM by Kinomescan method relative to control

Q: With `C=CC(=O)Nc1cc(Nc2cc(-c3cccc(NC(=O)c4ccc(C(C)(C)C)cc4)c3C)cn(C)c2=O)ccc1C(=O)N1CCOCC1` as the compound, how does the Activity [1] read?
A: 90%

Q: What about the Activity (Pfeiffer) of the same compound?
A: Dose-dependent effect

Q: What about the Activity [2] of the same compound?
A: 100%

Q: And the Activity [3]?
A: 100%

Q: And the Activity [4]?
A: 100%

Q: What about the Activity [5] of the same compound?
A: 100%

Q: And the Activity [6]?
A: 90%

Q: What about the Activity [7] of the same compound?
A: 95%

Q: And the Activity [8]?
A: 88%

Q: What about the Activity [9] of the same compound?
A: 100%

Q: And the Activity [10]?
A: 100%

Q: And the Activity [11]?
A: 96%

Q: And the Activity [12]?
A: 97%

Q: What about the Activity [13] of the same compound?
A: 100%

Q: What about the Activity [14] of the same compound?
A: 96%

Q: What about the Activity [15] of the same compound?
A: 100%

Q: What about the Activity [16] of the same compound?
A: 100%

Q: And the Activity [17]?
A: 99%

Q: And the Activity (Homo sapiens)?
A: 90%

Q: And the Activity [18]?
A: 82%

Q: What about the Activity [19] of the same compound?
A: 98%

Q: What about the Activity [20] of the same compound?
A: 97%

Q: And the Activity [21]?
A: 89%

Q: And the Activity [22]?
A: 81%

Q: And the Activity [23]?
A: 92%
